Assay results published in ChEMBL document CHEMBL1201862, “PubChem BioAssay data set” (2004).
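Five compound concentrations were applied to cells in 96-well plates for 48 hours; endpoints were derived by simple linear interpolation of the resulting dose-response curve. GI50 marks 50% less growth.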 Activity calls are given as the source filed them. Rule as the data show it: active = GI50 up to about 1.1 µM and inactive = higher.

What was measured:
Assay in all cases: inhibition of tumour cell growth, NCI panel, 48 h
[1] = system: OVCAR-4
[2] = system: CCRF-CEM
[3] = system: HCC 2998
[4] = system: NCI-H226
[5] = system: NCI-H23
[6] = system: SK-MEL-5
[7] = system: IGROV-1
[8] = system: UACC-257
[9] = system: NCI-H522
[10] = system: UO-31
[11] = system: HOP-92
[12] = system: ACHN
[13] = system: MCF7
[14] = system: SK-OV-3
[15] = system: SNB-19
[16] = system: EKVX
[17] = system: RPMI-8226
[18] = system: M14
[19] = system: SNB-75
[20] = system: SK-MEL-2

Measured: GI50

CC(=O)Nc1cc2c(cc1O)CC[C@@H]1[C@@H]2CC[C@]2(C)[C@@H](O)CC[C@@H]12
inactive: [1] > 100 µM | [2] 23.9 µM | [3] 37.2 µM | [4] 30.8 µM | [5] 47.3 µM | [6] 22.4 µM | [7] 82.4 µM | [8] 43.4 µM | [9] 20.8 µM | [10] 21.5 µM | [11] 41 µM | [12] 41.6 µM | [13] 28.6 µM | [14] > 100 µM | [15] > 100 µM | [16] 33 µM | [17] 45.3 µM | [18] 39.4 µM

C=CCN1C(N)=C(C(N)=O)S/C1=C1/SC(=S)N(c2ccc(C)cc2)C1=O
inactive: [2] > 100 µM | [4] > 100 µM | [5] 65.3 µM | [19] 12.6 µM | [6] > 100 µM | [7] > 100 µM | [8] > 100 µM | [9] > 100 µM | [10] > 100 µM | [11] > 100 µM | [12] > 100 µM | [14] > 100 µM | [15] > 100 µM | [17] > 100 µM | [20] > 100 µM

N#CC(NC12CC3CC(CC(C3)C1)C2)c1ccccc1C(F)(F)F (stereo not given)
inactive: [1] > 100 µM | [2] > 100 µM | [3] > 100 µM | [4] > 100 µM | [5] > 100 µM | [6] > 100 µM | [9] > 100 µM | [10] > 100 µM | [12] > 100 µM | [15] > 100 µM | [16] > 100 µM | [17] > 100 µM | [18] > 100 µM | [20] > 100 µM

O=c1ccc2ccc(S)cc2o1
inactive: [1] > 100 µM | [3] > 100 µM | [4] > 100 µM | [5] > 100 µM | [19] > 100 µM | [6] > 100 µM | [7] > 100 µM | [8] > 100 µM | [9] 87.3 µM | [10] > 100 µM | [11] > 100 µM | [12] > 100 µM | [13] > 100 µM | [14] > 100 µM | [15] > 100 µM | [16] > 100 µM | [17] 99.8 µM | [18] > 100 µM | [20] > 100 µM

Cc1c(C#N)c2nnn(C)c(=O)n2c1-c1ccccc1
inactive: [1] > 100 µM | [2] 64.1 µM | [3] > 100 µM | [4] 62.1 µM | [5] 59.3 µM | [19] 23.6 µM | [8] 34.4 µM | [10] 95.5 µM | [11] > 100 µM | [12] > 100 µM | [13] 71 µM | [14] > 100 µM | [15] > 100 µM | [16] 56 µM | [17] 84.9 µM | [18] > 100 µM | [20] > 100 µM

Cn1cc(C(=O)/C(Cl)=C(\Cl)C(=O)O)c2ccccc21
inactive: [1] > 100 µM | [2] > 100 µM | [3] > 100 µM | [4] > 100 µM | [5] > 100 µM | [19] > 100 µM | [6] > 100 µM | [7] > 100 µM | [8] > 100 µM | [10] > 100 µM | [12] > 100 µM | [14] > 100 µM | [16] > 100 µM | [17] > 100 µM | [18] > 100 µM | [20] > 100 µM

CC(C)OP(=O)(OC(C)C)/C(=N/Nc1ccc([N+](=O)[O-])cc1)NCCO
inactive: [1] > 100 µM | [2] > 100 µM | [3] > 100 µM | [4] > 100 µM | [5] > 100 µM | [19] > 100 µM | [6] > 100 µM | [8] > 100 µM | [9] > 100 µM | [10] > 100 µM | [11] 64.1 µM | [12] 54.1 µM | [15] > 100 µM | [16] > 100 µM | [17] > 100 µM | [18] > 100 µM | [20] > 100 µM

COc1cccc(N/C(C)=C2/CCOC2=O)c1
inactive: [1] > 10 µM | [2] > 10 µM | [3] > 10 µM | [4] > 10 µM | [5] > 10 µM | [19] > 10 µM | [6] > 10 µM | [7] > 10 µM | [9] > 10 µM | [10] 8.15 µM | [12] 5.33 µM | [13] > 10 µM | [14] > 10 µM | [15] > 10 µM | [16] > 10 µM | [17] > 10 µM | [18] > 10 µM | [20] > 10 µM

CC(C)(C)CI
inactive: [2] 21.4 µM | [3] 19.4 µM | [5] 55.6 µM | [19] 26.4 µM | [6] 16.9 µM | [7] > 100 µM | [8] 21.2 µM | [9] 17.5 µM | [10] > 10 µM | [11] 26.2 µM | [12] 20.7 µM | [14] 48.4 µM | [15] 23 µM | [16] 61.5 µM | [18] 25 µM | [20] 19.8 µM

O=C(O)c1ccc([Se][Se]c2ccc(C(=O)O)cc2)cc1
inactive: [1] 19.2 µM | [3] 35.9 µM | [4] 26.8 µM | [5] 19.3 µM | [19] 33.9 µM | [7] 30.4 µM | [9] 23.6 µM | [10] 29.9 µM | [15] 34.1 µM | [16] 23.6 µM | [17] 21.2 µM | [18] 18.5 µM | [20] 27.4 µM

NC1C=NNC1=O (stereo not given)
inactive: [1] > 100 µM | [2] > 100 µM | [3] > 100 µM | [5] > 100 µM | [19] > 100 µM | [6] > 100 µM | [7] > 100 µM | [8] > 100 µM | [9] > 100 µM | [10] > 100 µM | [12] > 100 µM | [14] > 100 µM | [15] > 100 µM | [16] > 100 µM | [17] > 100 µM | [18] > 100 µM | [20] > 100 µM

COc1cc(Nc2nc3cc(C(F)(F)F)ccc3n3cccc23)cc(OC)c1OC
inactive: [2] 4.54 µM | [3] > 100 µM | [5] > 100 µM | [19] > 100 µM | [6] 26.7 µM | [7] > 100 µM | [8] > 100 µM | [9] > 100 µM | [10] > 100 µM | [11] > 100 µM | [12] > 100 µM | [13] > 100 µM | [14] > 100 µM | [15] > 100 µM | [16] > 100 µM | [17] > 100 µM | [18] 17.8 µM | [20] > 100 µM

Cc1c2ccnc(C(F)(F)F)c2cc2c1[nH]c1ccccc12
inactive: [1] > 125 µM | [2] > 125 µM | [3] > 125 µM | [4] 38.9 µM | [5] > 125 µM | [19] 64 µM | [6] > 125 µM | [7] > 125 µM | [8] > 125 µM | [9] > 125 µM | [10] > 125 µM | [11] 8.63 µM | [13] 17.1 µM | [14] 36.3 µM | [15] 118 µM | [16] > 125 µM | [17] 85.1 µM | [20] > 125 µM

COP(=O)(OC)C(N)CCSC (stereo not given)
inactive: [1] > 100 µM | [2] > 100 µM | [4] > 100 µM | [5] > 100 µM | [19] > 100 µM | [6] > 100 µM | [7] > 100 µM | [8] > 100 µM | [9] > 100 µM | [10] > 100 µM | [11] > 100 µM | [12] > 100 µM | [13] > 100 µM | [14] > 100 µM | [15] > 100 µM | [16] > 100 µM | [17] > 100 µM | [18] > 100 µM | [20] > 100 µM

CC(O)C(O)C(N)CC=O (stereo not given)
inactive: [1] > 500 µM | [2] > 500 µM | [3] > 500 µM | [4] > 500 µM | [5] > 500 µM | [19] > 500 µM | [6] > 500 µM | [7] > 500 µM | [8] > 500 µM | [9] 79.3 µM | [10] > 500 µM | [11] > 500 µM | [13] > 500 µM | [14] > 500 µM | [15] > 500 µM | [16] 491 µM | [17] > 500 µM | [20] > 500 µM

CC1(C)CCCC2(C)[C@@H]1CC[C@]13C[C@](C)(CC[C@@H]21)[C@@H]3CO (stereo not given in full)
inactive: [1] > 100 µM | [2] > 100 µM | [3] > 100 µM | [4] > 100 µM | [5] > 100 µM | [19] 46.7 µM | [6] > 100 µM | [7] > 100 µM | [8] > 100 µM | [9] > 100 µM | [10] > 100 µM | [11] > 100 µM | [12] > 100 µM | [14] > 100 µM | [15] > 100 µM | [17] > 100 µM | [18] > 100 µM
